According to US5633345A, “Cyclic peptides” (priority 1992, dated 1997):
Starred links: 1 amine or outer side, 2 acyl side, 3 side chain; linkers in the order of their positions; H or OH if unused. Non-standard residues stand in square brackets, D forms with d. Residues, ends and D or L forms follow the SMILES beside them. *: point of attachment. X7 = CC(=O)OC(c1ccccc1)[C@@H](C(=O)[*:2])N(C)[*:1]; NMePhe(2-F) = CN[C@@H](Cc1ccccc1F)C(=O)O; X1 = CC[C@@H](C)[C@@H](O[*:1])C(=O)[*:2]; NMeVal(β-OH) = CN[C@H](C(=O)O)C(C)(C)O; X4 = CC(O)[C@@H](C)C(O[*:1])C(=O)[*:2]; X6 = CC(CO)[C@@H](C(=O)[*:2])N(C)[*:1]; NMeaIle = CC[C@@H](C)[C@H](NC)C(=O)O; Phe(2-F) = N[C@@H](Cc1ccccc1F)C(=O)O; X5 = CN([C@@H](CCCO)C(=O)[*:2])[*:1]; NMeY = CN[C@@H](Cc1ccc(O)cc1)C(=O)O; NMeF = CN[C@@H](Cc1ccccc1)C(=O)O; aIle = CC[C@@H](C)[C@H](N)C(=O)O; Nva(5-OH) = N[C@@H](CCCO)C(=O)O; NMeL = CN[C@@H](CC(C)C)C(=O)O; NMeV = CN[C@H](C(=O)O)C(C)C; Thz = O=C(O)[C@@H]1CSCN1; Nva = CCC[C@H](N)C(=O)O; OBn = c1ccc(CO*)cc1; Sar = CNCC(=O)O

conditions: mouse, in vivo, ip, 100 mg/kg

SMILES | toxicity signs
CC[C@@H](C)[C@@H]1NC(=O)[C@@H]2CCCN2C(=O)[C@H](C(OC(C)=O)c2ccccc2)N(C)C(=O)[C@H](Cc2ccccc2)NC(=O)[C@H](C(C)C)N(C)C(=O)[C@@H]([C@H](C)CC)OC(=O)[C@H](C(C)(C)O)N(C)C(=O)[C@H](CC(C)C)NC(=O)[C@H](C(C)C)N(C)C1=O (stereo partly drawn) [Compound 15] (cyclo(F[X7]P[aIle][NMeV]L[NMeVal(β-OH)][X1][NMeV])) | no toxicity signs
CC[C@@H](C)[C@@H]1NC(=O)[C@@H]2CCCN2C(=O)[C@H](Cc2ccccc2)N(C)C(=O)[C@H](Cc2ccccc2)NC(=O)[C@H](C(C)C)N(C)C(=O)[C@@H]([C@H](C)CC)OC(=O)[C@H](C(C)(C)O)N(C)C(=O)[C@H](CC(C)C)NC(=O)[C@H]([C@H](C)CC)N(C)C1=O [Compound 22, cyclo (L-aIle-L-MeaIle-L-Leu-L-βHOMeVal-D-Hmp-L-MeVal-L-Phe-L-MePhe-L-Pro)] (cyclo(F[NMeF]P[aIle][NMeaIle]L[NMeVal(β-OH)][X1][NMeV])) | no toxicity signs
CC[C@@H](C)[C@@H]1NC(=O)[C@@H]2CCCN2C(=O)[C@H](Cc2ccccc2)N(C)C(=O)[C@H](Cc2ccccc2)NC(=O)[C@H](C(C)C)N(C)C(=O)[C@@H]([C@H](C)CC)OC(=O)[C@H](C(C)(C)O)N(C)C(=O)[C@H]([C@H](C)CC)NC(=O)[C@H](C(C)C)N(C)C1=O [Compound 24, cyclo(L-aIle-L-MeVal-L-aIle-L-βHOMeVal-D-Hmp-L-MeVal-L-Phe-L-MePhe-L- Pro)] (cyclo(F[NMeF]P[aIle][NMeV][aIle][NMeVal(β-OH)][X1][NMeV])) | no toxicity signs
CC[C@@H](C)[C@@H]1NC(=O)[C@@H]2CCCN2C(=O)[C@H](Cc2ccccc2)N(C)C(=O)[C@H](Cc2ccccc2)NC(=O)[C@H](C(C)C)N(C)C(=O)[C@@H]([C@H](C)CC)OC(=O)[C@H](C(C)(C)O)N(C)C(=O)[C@H](CC(C)C)NC(=O)[C@H](CCCO)N(C)C1=O [Compound 28, cyclo(L-aIle-L-HOMeNva-L-Leu-L-βHOMeVal-D-Hmp-L-MeVal-L-Phe-L-MePhe-L-Pro)] (cyclo(F[NMeF]P[aIle][X5]L[NMeVal(β-OH)][X1][NMeV])) | no toxicity signs
CC[C@@H](C)[C@@H]1NC(=O)[C@@H]2CCCN2C(=O)[C@H](Cc2ccc(O)cc2)N(C)C(=O)[C@H](Cc2ccccc2)NC(=O)[C@H](C(C)C)N(C)C(=O)[C@@H]([C@H](C)CC)OC(=O)[C@H](C(C)(C)O)N(C)C(=O)[C@H](CC(C)C)NC(=O)[C@H](C(C)C)N(C)C1=O [Compound 8] (cyclo(F[NMeY]P[aIle][NMeV]L[NMeVal(β-OH)][X1][NMeV])) | no toxicity signs
CC[C@@H](C)[C@@H]1NC(=O)[C@@H]2CSCN2C(=O)[C@H](Cc2ccccc2)N(C)C(=O)[C@H](Cc2ccccc2)NC(=O)[C@H](C(C)C)N(C)C(=O)[C@@H]([C@H](C)CC)OC(=O)[C@H](C(C)(C)O)N(C)C(=O)[C@H](CC(C)C)NC(=O)[C@H](C(C)C)N(C)C1=O [Compound 10] (cyclo(F[NMeF][Thz][aIle][NMeV]L[NMeVal(β-OH)][X1][NMeV])) | no toxicity signs
CC[C@@H](C)[C@@H]1NC(=O)[C@@H]2CCCN2C(=O)[C@H](Cc2ccccc2)N(C)C(=O)[C@H](Cc2ccccc2)NC(=O)[C@H](C(C)C)N(C)C(=O)[C@@H]([C@H](C)CC)OC(=O)[C@H](C(C)CO)N(C)C(=O)[C@H](CC(C)C)NC(=O)[C@H](C(C)C)N(C)C1=O (stereo partly shown) [Compound 4] (cyclo(F[NMeF]P[aIle][NMeV]L[X6][X1][NMeV])) | no toxicity signs
CC[C@@H](C)[C@@H]1NC(=O)[C@@H]2CCCN2C(=O)[C@H](Cc2ccccc2F)N(C)C(=O)[C@H](Cc2ccccc2F)NC(=O)[C@H](C(C)C)N(C)C(=O)[C@@H]([C@H](C)CC)OC(=O)[C@H](C(C)(C)O)N(C)C(=O)[C@H](CC(C)C)NC(=O)[C@H](C(C)C)N(C)C1=O [Compound 7] (cyclo(L[NMeVal(β-OH)][X1][NMeV][Phe(2-F)][NMePhe(2-F)]P[aIle][NMeV])) | no toxicity signs
CC[C@@H](C)[C@@H]1NC(=O)[C@@H]2CCCN2C(=O)CN(C)C(=O)[C@H](Cc2ccccc2)NC(=O)[C@H](C(C)C)N(C)C(=O)[C@@H]([C@H](C)CC)OC(=O)[C@H](C(C)(C)O)N(C)C(=O)[C@H](CC(C)C)NC(=O)[C@H](C(C)C)N(C)C1=O [Compound 13] (cyclo(F[Sar]P[aIle][NMeV]L[NMeVal(β-OH)][X1][NMeV])) | no toxicity signs
CC[C@@H](C)[C@@H]1NC(=O)[C@@H]2CCCN2C(=O)[C@H](Cc2ccccc2)N(C)C(=O)[C@H](Cc2ccccc2)NC(=O)[C@H](C(C)C)N(C)C(=O)[C@@H]([C@H](C)CC)OC(=O)[C@H](C(C)(C)O)N(C)C(=O)[C@H](CC(C)C)NC(=O)[C@H](CC(C)C)N(C)C1=O [Compound 23, cyclo(L-aIle-L-MeLeu-L-Leu-L-βHOMeVal-D-Hmp-L-MeVal-L-Phe-L-MePhe-L-Pro)] (cyclo(F[NMeF]P[aIle][NMeL]L[NMeVal(β-OH)][X1][NMeV])) | no toxicity signs
CCC[C@@H]1NC(=O)[C@H](C(C)C)N(C)C(=O)[C@H]([C@H](C)CC)NC(=O)[C@@H]2CCCN2C(=O)[C@H](Cc2ccccc2)N(C)C(=O)[C@H](Cc2ccccc2)NC(=O)[C@H](C(C)C)N(C)C(=O)[C@@H]([C@H](C)CC)OC(=O)[C@H](C(C)(C)O)N(C)C1=O [Compound 12] (cyclo(F[NMeF]P[aIle][NMeV][Nva][NMeVal(β-OH)][X1][NMeV])) | no toxicity signs
CC[C@@H](C)[C@H]1OC(=O)[C@H](C(C)(C)O)N(C)C(=O)[C@H](CC(C)C)NC(=O)[C@H](C(C)C)N(C)C(=O)[C@H](CC(C)C)NC(=O)[C@@H]2CCCN2C(=O)[C@H](Cc2ccccc2)N(C)C(=O)[C@H](Cc2ccccc2)NC(=O)[C@H](C(C)C)N(C)C1=O [Compound 6] (HELM PEPTIDE1{F.[meF].P.L.[meV].L.[CN([C@H](C(=O)[*:2])C(C)(C)O)[*:1]].[CC[C@@H](C)[C@@H](O[*:1])C(=O)[*:2]].[meV]}$PEPTIDE1,PEPTIDE1,1:R1-9:R2$$$V2.0) | no toxicity signs
CC[C@@H](C)[C@H]1OC(=O)[C@H](C(C)(C)O)N(C)C(=O)[C@H](CC(C)C)NC(=O)[C@H](C(C)C)N(C)C(=O)[C@H](CCC(=O)OCc2ccccc2)NC(=O)[C@@H]2CCCN2C(=O)[C@H](Cc2ccccc2)N(C)C(=O)[C@H](Cc2ccccc2)NC(=O)[C@H](C(C)C)N(C)C1=O [Compound 26, cyclo(L-GluOR-L-MeVal-L-Leu-L-βHOMeVal-D-Hmp-L-MeVal-L-Phe-L-MePhe-L- Pro) (R: Bzl)] (cyclo(E(OBn)[NMeV]L[NMeVal(β-OH)][X1][NMeV]F[NMeF]P)) | no toxicity signs
CCCC[C@@H]1NC(=O)[C@@H]2CCCN2C(=O)[C@H](Cc2ccccc2)N(C)C(=O)[C@H](Cc2ccccc2)NC(=O)[C@H](C(C)C)N(C)C(=O)[C@@H]([C@H](C)CC)OC(=O)[C@H](C(C)(C)O)N(C)C(=O)[C@H](CC(C)C)NC(=O)[C@H](C(C)C)N(C)C1=O [Compound 11] (HELM PEPTIDE1{F.[meF].P.[Nle].[meV].L.[CN([C@H](C(=O)[*:2])C(C)(C)O)[*:1]].[CC[C@@H](C)[C@@H](O[*:1])C(=O)[*:2]].[meV]}$PEPTIDE1,PEPTIDE1,1:R1-9:R2$$$V2.0) | no toxicity signs
CC[C@@H](C)[C@@H]1NC(=O)[C@@H]2CCCN2C(=O)[C@H](Cc2ccccc2)N(C)C(=O)[C@H](Cc2ccccc2)NC(=O)[C@H](C(C)C)N(C)C(=O)[C@@H]([C@H](C)CC)OC(=O)[C@H]([C@@H](C)O)N(C)C(=O)[C@H](CC(C)C)NC(=O)[C@H](C(C)C)N(C)C1=O [Compound 19, Cyclo(L-aIle-L-MeVal-L-Leu-L-MeThr-D-Hmp-L-MeVal-L-Phe-L-MePhe-L-Pro)] (HELM PEPTIDE1{F.[meF].P.[CC[C@@H](C)[C@H](N[*:1])C(=O)[*:2]].[meV].L.[meT].[CC[C@@H](C)[C@@H](O[*:1])C(=O)[*:2]].[meV]}$PEPTIDE1,PEPTIDE1,1:R1-9:R2$$$V2.0) | no toxicity signs
CC[C@@H](C)[C@H]1OC(=O)[C@H](C(C)(C)O)N(C)C(=O)[C@H](CC(C)C)NC(=O)[C@H](C(C)C)N(C)C(=O)[C@H](C(C)C)NC(=O)[C@@H]2CCCN2C(=O)[C@H](Cc2ccccc2)N(C)C(=O)[C@H](Cc2ccccc2)NC(=O)[C@H](C(C)C)N(C)C1=O [Compound 3] (HELM PEPTIDE1{F.[meF].P.V.[meV].L.[CN([C@H](C(=O)[*:2])C(C)(C)O)[*:1]].[CC[C@@H](C)[C@@H](O[*:1])C(=O)[*:2]].[meV]}$PEPTIDE1,PEPTIDE1,1:R1-9:R2$$$V2.0) | no toxicity signs
CC[C@@H](C)[C@@H]1NC(=O)[C@@H]2CCCN2C(=O)[C@H](Cc2ccccc2)N(C)C(=O)[C@H](Cc2ccccc2)NC(=O)[C@H](C(C)C)N(C)C(=O)C([C@H](C)C(C)O)OC(=O)[C@H](C(C)(C)O)N(C)C(=O)[C@H](CC(C)C)NC(=O)[C@H](C(C)C)N(C)C1=O (stereo partly drawn) [Compound 17] (cyclo(F[NMeF]P[aIle][NMeV]L[NMeVal(β-OH)][X4][NMeV])) | no toxicity signs
CC[C@@H](C)[C@@H]1NC(=O)[C@@H]2CCCN2C(=O)[C@H](Cc2ccccc2)N(C)C(=O)[C@H](Cc2ccccc2)NC(=O)[C@H](C(C)C)N(C)C(=O)[C@@H]([C@H](C)CC)OC(=O)[C@H](C(C)(C)O)N(C)C(=O)[C@H](CCCO)NC(=O)[C@H](C(C)C)N(C)C1=O [Compound 39, cyclo(L-aIle-L-MeVal-L-HONva-L-βHOMeVal-D-Hmp-L-MeVal-L-Phe-L-MePhe-L-Pro)] (cyclo(F[NMeF]P[aIle][NMeV][Nva(5-OH)][NMeVal(β-OH)][X1][NMeV])) | no toxicity signs
CC(C)C[C@@H]1NC(=O)[C@H](C(C)C)N(C)C(=O)[C@H](C(C)C)NC(=O)[C@@H]2CCCN2C(=O)[C@H](Cc2ccccc2)N(C)C(=O)[C@H](Cc2ccccc2)NC(=O)[C@H](C(C)C)N(C)C(=O)[C@@H](C(C)C)OC(=O)[C@H](C(C)(C)O)N(C)C1=O [Compound 25] (HELM PEPTIDE1{F.[meF].P.V.[meV].L.[CN([C@H](C(=O)[*:2])C(C)(C)O)[*:1]].[CC(C)[C@@H](O[*:1])C(=O)[*:2]].[meV]}$PEPTIDE1,PEPTIDE1,1:R1-9:R2$$$V2.0) | no toxicity signs
